Source: PubChem BioAssay AID1963420 (Molecular Pharmacology Branch, DTP, NCI, 2024)

System: 494315-158-R-J1-PDC complex spheroid growth, percent test/control
Test: Anticancer human tumor 494315-158-R-J1-PDC patient-derived soft tissue sarcoma cell line growth inhibition [Asc]
Details: for IC50: curve of first compound; for viability, T/C: stronger effect = lower value
In short: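 Tumor cells were grown as multicellular spheroids with stromal HUVEC and mesenchymal stem cells and treated singly or in combination. Concentrations fell in half-log steps from the clinical Cmax, or from 10 microM where none was known.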

[1] = second compound 0.01 µM, first compound 0.00316 µM
[2] = second compound 0.01 µM, first compound 0.01 µM
[3] = second compound 0.01 µM, first compound 0.0316 µM
[4] = second compound 0.01 µM, first compound 0.1 µM
[5] = second compound 0.0316 µM, first compound 0.00316 µM
[6] = second compound 0.0316 µM, first compound 0.01 µM
[7] = second compound 0.0316 µM, first compound 0.0316 µM
[8] = second compound 0.0316 µM, first compound 0.1 µM
[9] = second compound 0.1 µM, first compound 0.00316 µM
[10] = second compound 0.1 µM, first compound 0.01 µM
[11] = second compound 0.1 µM, first compound 0.0316 µM
[12] = second compound 0.1 µM, first compound 0.1 µM
[13] = second compound 0.316 µM, first compound 0.00316 µM
[14] = second compound 0.316 µM, first compound 0.01 µM
[15] = second compound 0.316 µM, first compound 0.0316 µM
[16] = second compound 0.316 µM, first compound 0.1 µM
[17] = second compound 1 µM, first compound 0.00316 µM
[18] = second compound 1 µM, first compound 0.01 µM
[19] = second compound 1 µM, first compound 0.0316 µM
[20] = second compound 1 µM, first compound 0.1 µM
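Further: compound exposure lasted seven days after spheroids formed for three days.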

In the case of COc1c(OCCCN2CCOCC2)ccc2c3n(c(=NC(=O)c4cnc(N)nc4)nc12)CCN3 + CNC(C)C(=O)NC1CN(S(=O)(=O)c2cccc(S(=O)(=O)N3CCC4CCC(C(=O)NC(c5ccccc5)c5ccccc5)N4C(=O)C(NC(=O)C(C)NC)C3)c2)CCC2CCC(C(=O)NC(c3ccccc3)c3ccccc3)N2C1=O, the IC50 (second compound 0.01 µM) is reported as 17.1 nM, the IC50 (second compound 0.0316 µM) is reported as 11 nM and the IC50 (second compound 0.1 µM) is reported as 4.59 nM. For the same compound, the IC50 (second compound 0.316 µM) was < 3.16 nM, the IC50 (second compound 1 µM) was < 3.16 nM and the viability, T/C [1] was 65.8%. The viability, T/C [2] was 55.1%, the viability, T/C [3] was 44.7% and the viability, T/C [4] was 22.7%. The viability, T/C (second compound 0.01 µM, first compound 0.316 µM) was 16.8%, the viability, T/C (second compound 0.01 µM, first compound 1 µM) was 8.91% and the viability, T/C [5] was 53.5%. The viability, T/C [6] was 54.3%, the viability, T/C [7] was 37.3% and the viability, T/C [8] was 25.5%. The viability, T/C (second compound 0.0316 µM, first compound 0.316 µM) was 14%, the viability, T/C (second compound 0.0316 µM, first compound 1 µM) was 9.58% and the viability, T/C [9] was 52.3%. For the same compound, the viability, T/C [10] was 45.3%, the viability, T/C [11] was 30.1% and the viability, T/C [12] was 18.9%. For the same compound, the viability, T/C (second compound 0.1 µM, first compound 0.316 µM) was 12.8%, the viability, T/C (second compound 0.1 µM, first compound 1 µM) was 9.36% and the viability, T/C [13] was 38.2%. For the same compound, the viability, T/C [14] was 39.2%, the viability, T/C [15] was 28.4% and the viability, T/C [16] was 16.8%. It also gave a viability, T/C (second compound 0.316 µM, first compound 0.316 µM) of 11.8%, a viability, T/C (second compound 0.316 µM, first compound 1 µM) of 9.4% and a viability, T/C [17] of 47.4%. The viability, T/C [18] was 35.2%, the viability, T/C [19] was 25.2% and the viability, T/C [20] was 18.6%. It also gave a viability, T/C (second compound 1 µM, first compound 0.316 µM) of 9.45% and a viability, T/C (second compound 1 µM, first compound 1 µM) of 7.69%.

In the case of NC(=O)C(=Cn1cnc(-c2cc(C(F)(F)F)cc(C(F)(F)F)c2)n1)c1cncnc1 + CNC(C)C(=O)NC1CN(S(=O)(=O)c2cccc(S(=O)(=O)N3CCC4CCC(C(=O)NC(c5ccccc5)c5ccccc5)N4C(=O)C(NC(=O)C(C)NC)C3)c2)CCC2CCC(C(=O)NC(c3ccccc3)c3ccccc3)N2C1=O, the IC50 (second compound 0.01 µM) is reported as 50.5 nM, the IC50 (second compound 0.0316 µM) is reported as 12 nM and the IC50 (second compound 0.1 µM) is reported as 9.95 nM. The IC50 (second compound 0.316 µM) was 1.27 nM, the IC50 (second compound 1 µM) was < 0.949 nM and the viability, T/C (second compound 0.01 µM, first compound 0.000949 µM) was 73.4%. For the same compound, the viability, T/C (second compound 0.01 µM, first compound 0.003 µM) was 70.6%, the viability, T/C (second compound 0.01 µM, first compound 0.00949 µM) was 59.4% and the viability, T/C (second compound 0.01 µM, first compound 0.03 µM) was 54.2%. It also gave a viability, T/C (second compound 0.01 µM, first compound 0.0949 µM) of 46.8%, a viability, T/C (second compound 0.01 µM, first compound 0.3 µM) of 7.92% and a viability, T/C (second compound 0.0316 µM, first compound 0.000949 µM) of 58.4%. For the same compound, the viability, T/C (second compound 0.0316 µM, first compound 0.003 µM) was 58.8%, the viability, T/C (second compound 0.0316 µM, first compound 0.00949 µM) was 51.9% and the viability, T/C (second compound 0.0316 µM, first compound 0.03 µM) was 41.4%. It also gave a viability, T/C (second compound 0.0316 µM, first compound 0.0949 µM) of 27.8%, a viability, T/C (second compound 0.0316 µM, first compound 0.3 µM) of 7.91% and a viability, T/C (second compound 0.1 µM, first compound 0.000949 µM) of 51%. For the same compound, the viability, T/C (second compound 0.1 µM, first compound 0.003 µM) was 64.5%, the viability, T/C (second compound 0.1 µM, first compound 0.00949 µM) was 46.6% and the viability, T/C (second compound 0.1 µM, first compound 0.03 µM) was 39.5%. For the same compound, the viability, T/C (second compound 0.1 µM, first compound 0.0949 µM) was 23.5%, the viability, T/C (second compound 0.1 µM, first compound 0.3 µM) was 5.3% and the viability, T/C (second compound 0.316 µM, first compound 0.000949 µM) was 49.3%. For the same compound, the viability, T/C (second compound 0.316 µM, first compound 0.003 µM) was 50.1%, the viability, T/C (second compound 0.316 µM, first compound 0.00949 µM) was 43.8% and the viability, T/C (second compound 0.316 µM, first compound 0.03 µM) was 33.6%. For the same compound, the viability, T/C (second compound 0.316 µM, first compound 0.0949 µM) was 24.4%, the viability, T/C (second compound 0.316 µM, first compound 0.3 µM) was 5.39% and the viability, T/C (second compound 1 µM, first compound 0.000949 µM) was 35.7%. For the same compound, the viability, T/C (second compound 1 µM, first compound 0.003 µM) was 36.7%, the viability, T/C (second compound 1 µM, first compound 0.00949 µM) was 40.4% and the viability, T/C (second compound 1 µM, first compound 0.03 µM) was 35.8%. For the same compound, the viability, T/C (second compound 1 µM, first compound 0.0949 µM) was 21.8% and the viability, T/C (second compound 1 µM, first compound 0.3 µM) was 6.84%.

For NC1CCC(NC2CC2c2ccccc2)CC1 (stereo not given) + CNC(C)C(=O)NC1CN(S(=O)(=O)c2cccc(S(=O)(=O)N3CCC4CCC(C(=O)NC(c5ccccc5)c5ccccc5)N4C(=O)C(NC(=O)C(C)NC)C3)c2)CCC2CCC(C(=O)NC(c3ccccc3)c3ccccc3)N2C1=O, the IC50 (second compound 0.01 µM) was > 100 nM, the IC50 (second compound 0.0316 µM) was > 100 nM and the IC50 (second compound 0.1 µM) was > 100 nM. For the same compound, the IC50 (second compound 0.316 µM) was < 0.316 nM, the IC50 (second compound 1 µM) was < 0.316 nM and the viability, T/C (second compound 0.01 µM, first compound 0.000316 µM) was 72.2%. The viability, T/C (second compound 0.01 µM, first compound 0.001 µM) was 70.7%, the viability, T/C [1] was 71.7% and the viability, T/C [2] was 77.2%. It also gave a viability, T/C [3] of 77.4%, a viability, T/C [4] of 66.1% and a viability, T/C (second compound 0.0316 µM, first compound 0.000316 µM) of 65.7%. For the same compound, the viability, T/C (second compound 0.0316 µM, first compound 0.001 µM) was 67.8%, the viability, T/C [5] was 55.7% and the viability, T/C [6] was 70.6%. For the same compound, the viability, T/C [7] was 62.3%, the viability, T/C [8] was 57.3% and the viability, T/C (second compound 0.1 µM, first compound 0.000316 µM) was 53.5%. For the same compound, the viability, T/C (second compound 0.1 µM, first compound 0.001 µM) was 60.9%, the viability, T/C [9] was 47.3% and the viability, T/C [10] was 55.5%. It also gave a viability, T/C [11] of 52.4%, a viability, T/C [12] of 64.5% and a viability, T/C (second compound 0.316 µM, first compound 0.000316 µM) of 45.6%. The viability, T/C (second compound 0.316 µM, first compound 0.001 µM) was 48.3%, the viability, T/C [13] was 42.1% and the viability, T/C [14] was 43.9%. For the same compound, the viability, T/C [15] was 43.7%, the viability, T/C [16] was 44.7% and the viability, T/C (second compound 1 µM, first compound 0.000316 µM) was 38.8%. For the same compound, the viability, T/C (second compound 1 µM, first compound 0.001 µM) was 41.9%, the viability, T/C [17] was 42.9% and the viability, T/C [18] was 40.2%. For the same compound, the viability, T/C [19] was 35.7% and the viability, T/C [20] was 46.9%.
